How the values were obtained:
Assay in all cases: competitive isoTOP-ABPP
Type in all cases: binding
[1] = target: T1, GLOD4 Glyoxalase domain-containing protein 4 (Homo sapiens, UniProt Q9HC38); settings: for isoTOP-ABPP reactivity ratio at lysine Q9HC38_K305 / isoTOP-ABPP ratio (R) at liganded lysine Q9HC38_K305: 50 uM, in vitro; for isoTOP-ABPP reactivity ratio at lysine Q9HC38_K305: 231 sol; for isoTOP-ABPP ratio (R) at liganded lysine Q9HC38_K305: sol, 231
T1 construct: endogenous in cells; host or cells: MDA-MB-231 (soluble fraction of lysate)
T1 sequence (Q9HC38 1-313): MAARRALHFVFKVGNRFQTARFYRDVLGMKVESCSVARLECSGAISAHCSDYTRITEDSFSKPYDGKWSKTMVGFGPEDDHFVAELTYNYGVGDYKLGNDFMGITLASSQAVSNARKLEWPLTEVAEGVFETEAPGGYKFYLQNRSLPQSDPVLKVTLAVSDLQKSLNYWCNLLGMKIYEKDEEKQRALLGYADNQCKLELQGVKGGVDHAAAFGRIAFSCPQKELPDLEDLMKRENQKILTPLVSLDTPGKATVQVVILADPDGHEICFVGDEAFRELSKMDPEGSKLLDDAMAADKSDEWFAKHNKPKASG
In short: (§1)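 Probe: STP-alkyne, 0.1 mM, 1 h RT, after fragment pretreatment of lysate (esters 50 μM; guanidinylators 100 μM). Tags: light = compound, heavy = DMSO, via CuAAC. Replicates averaged if SD <60% of mean; otherwise lowest ratio used when any R <4.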

[2] = target: T2, ENOPH1 Enolase-phosphatase E1 (Homo sapiens, UniProt Q9UHY7); settings: for isoTOP-ABPP reactivity ratio at lysine Q9UHY7_K111 / isoTOP-ABPP ratio (R) at liganded lysine Q9UHY7_K111: 50 uM, in vitro; for isoTOP-ABPP reactivity ratio at lysine Q9UHY7_K111: 231 sol; for isoTOP-ABPP ratio (R) at liganded lysine Q9UHY7_K111: sol, 231
T2 construct: endogenous in cells; host or cells: MDA-MB-231 (soluble fraction of lysate)
In short: as §1

[3] = target: T3, NAA25 N-alpha-acetyltransferase 25, NatB auxiliary subunit (Homo sapiens, UniProt Q14CX7); settings: for isoTOP-ABPP reactivity ratio at lysine Q14CX7_K575 / isoTOP-ABPP ratio (R) at liganded lysine Q14CX7_K575: 50 uM, in vitro; for isoTOP-ABPP reactivity ratio at lysine Q14CX7_K575: 231 sol; for isoTOP-ABPP ratio (R) at liganded lysine Q14CX7_K575: sol, 231
T3 construct: isoTOP-ABPP experiments performed in cell lysates (in vitro); endogenous in cells; host or cells: soluble proteome of human cancer cell lines (MDA-MB-231; Ramos and Jurkat also prepared)
In short: as §1

[4] = target: T4, GBAS Protein NipSnap homolog 2 (Homo sapiens, UniProt O75323); settings: for isoTOP-ABPP reactivity ratio at lysine O75323_K75 / isoTOP-ABPP ratio (R) at liganded lysine O75323_K75: 50 uM, in vitro; for isoTOP-ABPP reactivity ratio at lysine O75323_K75: 231 sol; for isoTOP-ABPP ratio (R) at liganded lysine O75323_K75: sol, 231
T4 construct: isoTOP-ABPP experiments performed in cell lysates (in vitro); endogenous in cells; host or cells: MDA-MB-231 soluble lysate
T4 sequence (O75323 24-286): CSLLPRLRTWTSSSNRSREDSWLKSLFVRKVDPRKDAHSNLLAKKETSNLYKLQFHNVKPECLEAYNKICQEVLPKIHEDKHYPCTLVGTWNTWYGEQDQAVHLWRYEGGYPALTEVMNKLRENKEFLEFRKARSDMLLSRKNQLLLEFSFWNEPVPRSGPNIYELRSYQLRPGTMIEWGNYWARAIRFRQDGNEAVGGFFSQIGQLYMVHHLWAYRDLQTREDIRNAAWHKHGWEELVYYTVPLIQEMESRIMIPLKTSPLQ
In short: as §1

[5] = target: T5, GOLGB1 Golgin subfamily B member 1 (Homo sapiens, UniProt Q14789); settings: for isoTOP-ABPP reactivity ratio at lysine Q14789_K103 / isoTOP-ABPP ratio (R) at liganded lysine Q14789_K103: 50 uM, in vitro; for isoTOP-ABPP reactivity ratio at lysine Q14789_K103: 231 sol; for isoTOP-ABPP ratio (R) at liganded lysine Q14789_K103: sol, 231
T5 construct: isoTOP-ABPP experiments performed in cell lysates (in vitro); endogenous in cells; host or cells: soluble proteome of human cancer cell lines (MDA-MB-231, Ramos, Jurkat)
In short: as §1

T3 sequence (Q14CX7 whole entry): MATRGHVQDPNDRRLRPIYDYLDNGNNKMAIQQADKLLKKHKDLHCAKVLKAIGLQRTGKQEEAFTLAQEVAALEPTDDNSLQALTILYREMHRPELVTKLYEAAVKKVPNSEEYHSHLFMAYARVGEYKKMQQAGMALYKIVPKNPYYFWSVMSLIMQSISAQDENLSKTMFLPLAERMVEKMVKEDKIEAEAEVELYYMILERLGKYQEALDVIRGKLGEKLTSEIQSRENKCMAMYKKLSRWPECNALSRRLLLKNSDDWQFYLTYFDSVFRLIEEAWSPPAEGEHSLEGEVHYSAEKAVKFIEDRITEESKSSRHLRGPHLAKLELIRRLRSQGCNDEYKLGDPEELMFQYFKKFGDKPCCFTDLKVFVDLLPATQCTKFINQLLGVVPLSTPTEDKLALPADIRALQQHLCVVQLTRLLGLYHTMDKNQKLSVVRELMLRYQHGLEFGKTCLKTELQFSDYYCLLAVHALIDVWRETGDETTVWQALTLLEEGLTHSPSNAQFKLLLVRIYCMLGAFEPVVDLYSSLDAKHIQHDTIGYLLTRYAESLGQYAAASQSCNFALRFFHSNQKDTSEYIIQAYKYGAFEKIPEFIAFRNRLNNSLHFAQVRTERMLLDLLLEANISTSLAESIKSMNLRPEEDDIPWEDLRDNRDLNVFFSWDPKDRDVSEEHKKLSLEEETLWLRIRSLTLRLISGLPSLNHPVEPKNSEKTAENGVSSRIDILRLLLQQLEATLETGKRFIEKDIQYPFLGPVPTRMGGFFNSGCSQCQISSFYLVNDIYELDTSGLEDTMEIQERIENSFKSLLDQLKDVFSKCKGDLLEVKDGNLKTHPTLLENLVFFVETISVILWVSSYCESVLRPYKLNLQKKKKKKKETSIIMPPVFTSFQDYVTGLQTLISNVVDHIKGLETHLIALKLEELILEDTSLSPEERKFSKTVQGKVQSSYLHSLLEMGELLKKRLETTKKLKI
T2 sequence (Q9UHY7 whole entry): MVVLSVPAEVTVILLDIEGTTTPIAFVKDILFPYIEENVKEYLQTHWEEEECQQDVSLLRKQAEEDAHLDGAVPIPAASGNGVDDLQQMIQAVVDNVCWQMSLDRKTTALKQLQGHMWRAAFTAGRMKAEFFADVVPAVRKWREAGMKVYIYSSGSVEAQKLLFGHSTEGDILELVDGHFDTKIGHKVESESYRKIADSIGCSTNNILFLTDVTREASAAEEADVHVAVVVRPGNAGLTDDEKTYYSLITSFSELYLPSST
T5 sequence (Q14789 whole entry): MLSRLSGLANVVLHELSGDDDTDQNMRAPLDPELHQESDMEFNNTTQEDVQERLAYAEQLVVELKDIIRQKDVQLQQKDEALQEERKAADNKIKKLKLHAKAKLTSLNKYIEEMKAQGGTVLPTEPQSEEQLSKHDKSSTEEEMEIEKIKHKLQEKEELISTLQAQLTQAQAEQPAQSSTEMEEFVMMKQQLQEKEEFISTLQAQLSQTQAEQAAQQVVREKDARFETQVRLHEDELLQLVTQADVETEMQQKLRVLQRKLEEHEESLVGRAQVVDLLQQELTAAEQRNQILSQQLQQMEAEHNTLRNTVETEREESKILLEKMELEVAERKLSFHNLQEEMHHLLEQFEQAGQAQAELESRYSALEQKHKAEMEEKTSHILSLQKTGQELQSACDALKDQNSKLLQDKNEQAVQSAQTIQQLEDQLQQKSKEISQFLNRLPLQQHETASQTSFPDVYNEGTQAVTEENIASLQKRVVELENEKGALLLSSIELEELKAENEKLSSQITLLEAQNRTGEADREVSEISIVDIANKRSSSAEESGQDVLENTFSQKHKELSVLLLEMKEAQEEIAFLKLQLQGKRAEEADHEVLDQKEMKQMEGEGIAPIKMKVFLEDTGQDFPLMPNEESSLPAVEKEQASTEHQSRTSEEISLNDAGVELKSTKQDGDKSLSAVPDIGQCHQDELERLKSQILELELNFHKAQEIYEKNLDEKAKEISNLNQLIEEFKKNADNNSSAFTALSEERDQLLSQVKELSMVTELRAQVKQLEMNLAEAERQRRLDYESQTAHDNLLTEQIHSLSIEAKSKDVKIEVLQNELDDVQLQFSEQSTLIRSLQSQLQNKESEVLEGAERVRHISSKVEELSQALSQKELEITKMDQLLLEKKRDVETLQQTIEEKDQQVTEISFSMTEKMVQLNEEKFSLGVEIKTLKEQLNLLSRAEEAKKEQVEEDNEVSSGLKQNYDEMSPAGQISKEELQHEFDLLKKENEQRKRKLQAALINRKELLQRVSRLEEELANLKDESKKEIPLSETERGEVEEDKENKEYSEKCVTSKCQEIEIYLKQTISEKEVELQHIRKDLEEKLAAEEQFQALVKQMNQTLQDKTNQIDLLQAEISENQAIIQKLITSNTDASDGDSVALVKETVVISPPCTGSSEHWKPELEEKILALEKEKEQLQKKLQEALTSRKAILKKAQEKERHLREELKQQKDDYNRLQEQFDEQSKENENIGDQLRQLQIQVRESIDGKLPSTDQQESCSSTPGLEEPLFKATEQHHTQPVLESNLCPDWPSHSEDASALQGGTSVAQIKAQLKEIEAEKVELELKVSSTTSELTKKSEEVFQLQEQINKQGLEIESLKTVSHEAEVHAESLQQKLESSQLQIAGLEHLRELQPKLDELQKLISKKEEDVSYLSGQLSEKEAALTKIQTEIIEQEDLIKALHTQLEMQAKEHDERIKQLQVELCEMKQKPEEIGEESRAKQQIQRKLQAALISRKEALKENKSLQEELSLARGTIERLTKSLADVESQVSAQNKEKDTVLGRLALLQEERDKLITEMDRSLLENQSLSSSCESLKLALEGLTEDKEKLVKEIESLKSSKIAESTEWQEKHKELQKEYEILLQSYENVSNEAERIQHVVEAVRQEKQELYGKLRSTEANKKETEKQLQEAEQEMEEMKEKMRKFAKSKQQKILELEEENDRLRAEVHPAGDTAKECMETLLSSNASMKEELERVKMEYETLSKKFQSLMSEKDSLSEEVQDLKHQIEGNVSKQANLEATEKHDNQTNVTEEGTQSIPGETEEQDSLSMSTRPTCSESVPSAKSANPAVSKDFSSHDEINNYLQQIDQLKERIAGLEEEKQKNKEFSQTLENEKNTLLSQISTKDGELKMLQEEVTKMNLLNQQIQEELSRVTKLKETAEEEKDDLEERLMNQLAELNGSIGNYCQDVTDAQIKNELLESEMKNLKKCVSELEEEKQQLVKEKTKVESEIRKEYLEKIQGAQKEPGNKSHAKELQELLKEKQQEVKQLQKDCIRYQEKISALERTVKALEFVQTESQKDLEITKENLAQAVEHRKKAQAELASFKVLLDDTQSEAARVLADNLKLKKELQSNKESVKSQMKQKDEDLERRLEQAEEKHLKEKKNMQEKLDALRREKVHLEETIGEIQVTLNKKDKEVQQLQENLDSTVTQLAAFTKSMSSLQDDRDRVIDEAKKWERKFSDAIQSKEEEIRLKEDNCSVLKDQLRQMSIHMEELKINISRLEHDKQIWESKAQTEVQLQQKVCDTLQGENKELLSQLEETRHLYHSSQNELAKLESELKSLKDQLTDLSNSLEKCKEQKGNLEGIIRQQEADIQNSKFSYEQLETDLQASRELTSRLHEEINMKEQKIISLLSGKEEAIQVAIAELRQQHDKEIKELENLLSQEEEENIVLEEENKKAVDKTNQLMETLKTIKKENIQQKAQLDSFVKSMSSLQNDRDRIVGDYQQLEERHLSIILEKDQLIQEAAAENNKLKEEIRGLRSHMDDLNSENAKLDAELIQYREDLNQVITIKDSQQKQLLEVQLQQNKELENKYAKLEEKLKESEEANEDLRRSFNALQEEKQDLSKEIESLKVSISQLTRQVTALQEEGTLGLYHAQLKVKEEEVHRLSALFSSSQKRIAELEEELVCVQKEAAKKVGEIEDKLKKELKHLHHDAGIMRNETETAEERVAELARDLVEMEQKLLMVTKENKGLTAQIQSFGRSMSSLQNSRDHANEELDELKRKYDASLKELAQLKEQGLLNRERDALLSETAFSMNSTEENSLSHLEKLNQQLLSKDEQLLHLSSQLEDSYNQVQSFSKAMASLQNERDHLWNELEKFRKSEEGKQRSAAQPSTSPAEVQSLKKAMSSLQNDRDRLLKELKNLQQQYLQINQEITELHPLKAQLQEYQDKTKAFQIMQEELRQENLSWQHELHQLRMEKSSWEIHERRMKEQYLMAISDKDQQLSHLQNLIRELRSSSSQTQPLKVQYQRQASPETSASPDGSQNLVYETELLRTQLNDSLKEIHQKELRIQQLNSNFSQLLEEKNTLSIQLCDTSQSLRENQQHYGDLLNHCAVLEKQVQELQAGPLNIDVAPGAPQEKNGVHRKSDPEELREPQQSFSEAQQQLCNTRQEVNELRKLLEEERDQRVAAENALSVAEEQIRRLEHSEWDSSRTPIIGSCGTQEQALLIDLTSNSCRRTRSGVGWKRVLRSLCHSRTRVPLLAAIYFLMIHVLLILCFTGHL

O=C(Oc1c(F)c(F)c(F)c(F)c1F)c1ccc2ccccc2n1 [fragment 25, Pentafluorophenyl quinoline-2-carboxylate]
isoTOP-ABPP reactivity ratio at lysine Q9HC38_K305 [1]: 0.4
isoTOP-ABPP reactivity ratio at lysine Q9UHY7_K111 [2]: 1.1
isoTOP-ABPP reactivity ratio at lysine Q14CX7_K575 [3]: 0.9
isoTOP-ABPP reactivity ratio at lysine O75323_K75 [4]: 1.4
isoTOP-ABPP reactivity ratio at lysine Q14789_K103 [5]: 1.0

O=C(CCc1coc2cc(F)ccc2c1=O)Oc1c(F)c(F)c(F)c(F)c1F [fragment 26, Pentafluorophenyl 3-(7-fluoro-4-oxo-4H-chromen-3-yl)propanoate]
isoTOP-ABPP reactivity ratio at lysine Q9HC38_K305 [1]: 0.8
isoTOP-ABPP reactivity ratio at lysine Q9UHY7_K111 [2]: 1.3
isoTOP-ABPP reactivity ratio at lysine Q14CX7_K575 [3]: 0.9
isoTOP-ABPP reactivity ratio at lysine O75323_K75 [4]: 4.2
isoTOP-ABPP reactivity ratio at lysine Q14789_K103 [5]: 1.1

O=C(CN1C(=O)c2ccccc2C1=O)Oc1c(F)c(F)c(F)c(F)c1F [fragment 27, Pentafluorophenyl 2-(1,3-dioxoisoindolin-2-yl)acetate]
isoTOP-ABPP reactivity ratio at lysine Q9HC38_K305 [1]: 0.5
isoTOP-ABPP reactivity ratio at lysine Q9UHY7_K111 [2]: 1.5
isoTOP-ABPP reactivity ratio at lysine Q14CX7_K575 [3]: 1.4
isoTOP-ABPP reactivity ratio at lysine O75323_K75 [4]: 20.0
isoTOP-ABPP reactivity ratio at lysine Q14789_K103 [5]: 1.3

CCn1cc(C(=O)Oc2c(F)c(F)c(F)c(F)c2F)c(=O)c2ccc(C)nc21 [fragment 28, Pentafluorophenyl 1-ethyl-7-methyl-4-oxo-1,4-dihydro-1,8-naphthyridine-3-carboxylate]
isoTOP-ABPP reactivity ratio at lysine Q9HC38_K305 [1]: 1.0
isoTOP-ABPP reactivity ratio at lysine Q9UHY7_K111 [2]: 1.0
isoTOP-ABPP reactivity ratio at lysine Q14CX7_K575 [3]: 0.8
isoTOP-ABPP reactivity ratio at lysine O75323_K75 [4]: 1.0
isoTOP-ABPP reactivity ratio at lysine Q14789_K103 [5]: 0.9

O=C(CCc1cn(-c2ccccc2)nc1-c1ccccc1)Oc1ccc([N+](=O)[O-])cc1[N+](=O)[O-] [fragment 29, 2,4-Dinitrophenyl 3-(1,3-diphenyl-1H-pyrazol-4-yl)propanoate]
isoTOP-ABPP reactivity ratio at lysine Q9HC38_K305 [1]: 0.9
isoTOP-ABPP reactivity ratio at lysine Q9UHY7_K111 [2]: 0.8
isoTOP-ABPP reactivity ratio at lysine Q14CX7_K575 [3]: 1.1
isoTOP-ABPP reactivity ratio at lysine O75323_K75 [4]: 1.0
isoTOP-ABPP reactivity ratio at lysine Q14789_K103 [5]: 1.1

O=C(Oc1ccc([N+](=O)[O-])cc1[N+](=O)[O-])C(c1ccccc1)c1ccccc1 [fragment 30, 2,4-Dinitrophenyl 2,2-diphenylacetate]
isoTOP-ABPP reactivity ratio at lysine Q9HC38_K305 [1]: 0.6
isoTOP-ABPP reactivity ratio at lysine Q9UHY7_K111 [2]: 0.8
isoTOP-ABPP reactivity ratio at lysine Q14CX7_K575 [3]: 4.7
isoTOP-ABPP reactivity ratio at lysine O75323_K75 [4]: 1.1
isoTOP-ABPP reactivity ratio at lysine Q14789_K103 [5]: 1.4

COc1cc(CCC(=O)Oc2ccc([N+](=O)[O-])cc2[N+](=O)[O-])cc(OC)c1OC [fragment 33, 2,4-Dinitrophenyl 3-(3,4,5-trimethoxyphenyl)propanoate]
isoTOP-ABPP reactivity ratio at lysine Q9HC38_K305 [1]: 0.4
isoTOP-ABPP reactivity ratio at lysine Q9UHY7_K111 [2]: 0.9
isoTOP-ABPP reactivity ratio at lysine Q14CX7_K575 [3]: 1.1
isoTOP-ABPP reactivity ratio at lysine O75323_K75 [4]: 3.0
isoTOP-ABPP reactivity ratio at lysine Q14789_K103 [5]: 1.0

O=C(Oc1ccc([N+](=O)[O-])cc1[N+](=O)[O-])c1ccc2ccccc2n1 [fragment 35, 2,4-Dinitrophenyl quinoline-2-carboxylate]
isoTOP-ABPP ratio (R) at liganded lysine Q9HC38_K305 [1]: 0.4
isoTOP-ABPP ratio (R) at liganded lysine Q9UHY7_K111 [2]: 1.0
isoTOP-ABPP ratio (R) at liganded lysine Q14CX7_K575 [3]: 0.9
isoTOP-ABPP ratio (R) at liganded lysine O75323_K75 [4]: 1.6
isoTOP-ABPP ratio (R) at liganded lysine Q14789_K103 [5]: 0.9

O=C(Oc1ccc([N+](=O)[O-])cc1[N+](=O)[O-])c1ccc(-c2ccccc2)cc1 [fragment 37, 2,4-Dinitrophenyl [1,1′-biphenyl]-4-carboxylate]
isoTOP-ABPP ratio (R) at liganded lysine Q9HC38_K305 [1]: 0.6
isoTOP-ABPP ratio (R) at liganded lysine Q9UHY7_K111 [2]: 0.9
isoTOP-ABPP ratio (R) at liganded lysine Q14CX7_K575 [3]: 0.9
isoTOP-ABPP ratio (R) at liganded lysine O75323_K75 [4]: 1.6
isoTOP-ABPP ratio (R) at liganded lysine Q14789_K103 [5]: 0.9

O=C(Oc1ccc([N+](=O)[O-])cc1[N+](=O)[O-])c1ccc(Oc2ccccc2)cc1 [fragment 39, 2,4-Dinitrophenyl 4-phenoxybenzoate]
isoTOP-ABPP ratio (R) at liganded lysine Q9HC38_K305 [1]: 0.8
isoTOP-ABPP ratio (R) at liganded lysine Q9UHY7_K111 [2]: 0.8
isoTOP-ABPP ratio (R) at liganded lysine Q14CX7_K575 [3]: 1.0
isoTOP-ABPP ratio (R) at liganded lysine O75323_K75 [4]: 20.0
isoTOP-ABPP ratio (R) at liganded lysine Q14789_K103 [5]: 0.9

O=C(Oc1ccc([N+](=O)[O-])cc1[N+](=O)[O-])c1ccccc1Nc1cccc(C(F)(F)F)c1 [fragment 40, 2,4-Dinitrophenyl 2-((3-(trifluoromethyl)phenyl)amino)benzoate]
isoTOP-ABPP ratio (R) at liganded lysine Q9HC38_K305 [1]: 0.8
isoTOP-ABPP ratio (R) at liganded lysine Q9UHY7_K111 [2]: 0.7
isoTOP-ABPP ratio (R) at liganded lysine Q14CX7_K575 [3]: 0.8
isoTOP-ABPP ratio (R) at liganded lysine O75323_K75 [4]: 1.0
isoTOP-ABPP ratio (R) at liganded lysine Q14789_K103 [5]: 0.9

N#Cc1ccc(C(=O)Oc2ccc([N+](=O)[O-])cc2[N+](=O)[O-])cc1 [fragment 44, 2,4-Dinitrophenyl 4-cyanobenzoate]
isoTOP-ABPP ratio, lysine Q9HC38_K305 ([1]; 50 uM_231_sol_in vitro): 0.5
isoTOP-ABPP ratio, lysine Q9UHY7_K111 ([2]; 50 uM_231_sol_in vitro): 0.9
isoTOP-ABPP ratio, lysine Q14CX7_K575 ([3]; 50 uM_231_sol_in vitro): 0.8
isoTOP-ABPP ratio, lysine O75323_K75 ([4]; 50 uM_231_sol_in vitro): 1.1
isoTOP-ABPP ratio, lysine Q14789_K103 ([5]; 50 uM_231_sol_in vitro): 0.9

O=C(CCc1ccc2c(c1)OCO2)Oc1ccc([N+](=O)[O-])cc1[N+](=O)[O-] [fragment 45, 2,4-Dinitrophenyl 3-(benzo[d][1,3]dioxol-5-yl)propanoate]
isoTOP-ABPP ratio, lysine Q9HC38_K305 ([1]; 50 uM_231_sol_in vitro): 0.7
isoTOP-ABPP ratio, lysine Q9UHY7_K111 ([2]; 50 uM_231_sol_in vitro): 1.1
isoTOP-ABPP ratio, lysine Q14CX7_K575 ([3]; 50 uM_231_sol_in vitro): 1.2
isoTOP-ABPP ratio, lysine O75323_K75 ([4]; 50 uM_231_sol_in vitro): 5.0
isoTOP-ABPP ratio, lysine Q14789_K103 ([5]; 50 uM_231_sol_in vitro): 1.0

COC(=O)NC(=NC(=O)OCC1c2ccccc2-c2ccccc21)n1cccn1 [fragment 49, N-Methoxycarbonyl-N′-9-fluorenylmethoxycarbonyl-pyrazole-1-carboxamidine]
isoTOP-ABPP ratio, lysine Q9HC38_K305 ([1]; 100 uM_231_sol_in vitro): 1.2
isoTOP-ABPP ratio, lysine Q9UHY7_K111 ([2]; 100 uM_231_sol_in vitro): 20.0
isoTOP-ABPP ratio, lysine Q14CX7_K575 ([3]; 100 uM_231_sol_in vitro): 1.1
isoTOP-ABPP ratio, lysine O75323_K75 ([4]; 100 uM_231_sol_in vitro): 1.7
isoTOP-ABPP ratio, lysine Q14789_K103 ([5]; 100 uM_231_sol_in vitro): 1.8

NC(=O)c1cc(C(F)(F)F)cc(C(F)(F)F)c1 [fragment 51, reference compound]
isoTOP-ABPP ratio, lysine Q9HC38_K305 ([1]; 50 uM_231_sol_in vitro): 0.9
isoTOP-ABPP ratio, lysine Q9UHY7_K111 ([2]; 50 uM_231_sol_in vitro): 0.9
isoTOP-ABPP ratio, lysine Q14CX7_K575 ([3]; 50 uM_231_sol_in vitro): 1.0
isoTOP-ABPP ratio, lysine O75323_K75 ([4]; 50 uM_231_sol_in vitro): 0.9
isoTOP-ABPP ratio, lysine Q14789_K103 ([5]; 50 uM_231_sol_in vitro): 0.9

From US20210255193A1, “LYSINE REACTIVE PROBES AND USES THEREOF” (The Scripps Research Institute, priority 2017, published 2021)
